As a reminder, the solubility is the dissolved amount per volume that the medium holds.

A short description of data set [1]: Water solubility of the co-crystals (slurry equilibration, HPLC). Type of data set: physicochemical. The following applies: water suspension (slurry), thermodynamic from solid; water suspensions slurried for 24 hours, filtered, liquid phase by HPLC, room temperature. As for the experimental part: The determination of the amount of the actives in solution was performed on HPLC ACQUITY (Water) system, equipped with PDA—230 nm UV detector and Sample Manager auto-injector. Waters' Enpower software was used to record the chromatograms and to calculate the chromatographic parameters. […] Injection volume was set 1 μL by auto injector. The analysis were performed with rate flux of 0.4 ml/min. UV detection was performed at 245 nm. Peak identities were confirmed by spectrum and retention time comparison. All the analyses were performed at room temperature. All the analyzed solutions were prepared by slurry equilibration experiments. […] The suspensions were filtered and both solid phase and liquid phase were analyzed by XRPD and HPLC, respectively.

Data set [2] in a line: Isothermal TGA volatility study. The data set is classed as physicochemical. The note with it: isothermal TGA at 100° C., weight loss monitored for 12 hours, nitrogen flow. As for the experimental part: TG/DTA measurement was carried out on a Seiko TG/DTA 7200 instrument. An open aluminium pan was used and the measurement was carried out under nitrogen flow with a sample weight of 5 to 10 mg. The isothermal TGA for volatility studies were performed at 100° C. and the weight loss was monitored for 12 hours.

≈ marks a conversion by molar mass, not a printed value.

`COc1c(Cl)ccc(Cl)c1C(=O)O` [Dicamba, 3,6-dichloro-2-methoxybenzoic acid] registered a solubility at 24 h in data set [1] of 6550 µg/mL (≈ 29.6 mM). The “TGA Volatility (% weight loss per minute)” value in data set [2] was 1.20 × 10^−2 % weight loss per minute.

The record behind these values is patent publication US20150065347A1, “CO-CRYSTALS OF DICAMBA AND A CO-CRYSTAL FORMER B” (priority 2012, published 2015).
